Test results from the supplement of paper PMC7840683.
± gives the standard deviation of the averaged measurements.

Test system: HepaRG
Assay: LDH release cytotoxicity, % of total lysis control; higher = more cytotoxic
Conditions: 48 h
Outline: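 Percent cytotoxicity was scaled between on-plate vehicle and total lysis controls, then averaged over duplicate wells. The cells were single-lot HepaRG on collagen I-coated 96-well plates, exposed for 48 h to eight-point half-log test chemical series topping at 100 µM in serum-free induction medium with 0.5% DMSO. Total lysis wells got 0.1% Triton X, and LDH in 50 µL spent medium was read as resorufin fluorescence (CytoTox-ONE, Tecan Safire).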

Structure (SMILES)	LDH release cytotoxicity (0.03162 µM)	LDH release cytotoxicity (0.1 µM)	LDH release cytotoxicity (0.3162278 µM)	LDH release cytotoxicity (1 µM)	LDH release cytotoxicity (3.16228 µM)	LDH release cytotoxicity (10 µM)	LDH release cytotoxicity (31.6228 µM)	LDH release cytotoxicity (100 µM)	LDH release cytotoxicity (0.01581 µM)	LDH release cytotoxicity (0.05 µM)	LDH release cytotoxicity (0.1581139 µM)	LDH release cytotoxicity (0.5 µM)	LDH release cytotoxicity (1.5811388 µM)	LDH release cytotoxicity (5 µM)	LDH release cytotoxicity (15.8114 µM)	LDH release cytotoxicity (50 µM)
NS(=O)(=O)c1cc2c(cc1Cl)NCNS2(=O)=O [Hydrochlorothiazide]	-0.499 ± 1.2%	-1.26 ± 0.43%	-1.458 ± 0.011%	-1.51 ± 0.88%	-1.15 ± 0.3%	-0.679 ± 0.3%	-1.51 ± 0.25%	-0.146 ± 0.38%	–	–	–	–	–	–	–	–
Oc1ccc(O)cc1 [Hydroquinone]	0.852 ± 2.2%	-0.606 ± 1%	-1.09 ± 0.16%	-0.745 ± 0.076%	-0.483 ± 0.15%	-0.0561 ± 0.24%	-0.947 ± 0.53%	-1.615 ± 0.013%	–	–	–	–	–	–	–	–
CC(C)(O)C(=O)Nc1ccc([N+](=O)[O-])c(C(F)(F)F)c1 [Hydroxyflutamide]	–	–	–	–	–	–	–	–	-1.79 ± 0.91%	-0.825 ± 0.75%	-0.846 ± 0.13%	-1.16 ± 0.28%	-0.0206 ± 0.13%	0.0482 ± 0.13%	-1.19 ± 0.34%	2.46 ± 1.6%
NC(=O)NO [Hydroxyurea]	-2.94 ± 1.1%	-1.59 ± 1.4%	-2.4 ± 0.64%	-2.62 ± 0.18%	-1.83 ± 0.11%	-1.79 ± 0.38%	-0.278 ± 0.73%	2.82 ± 1.5%	–	–	–	–	–	–	–	–
CCC(C)OC(=O)N1CCCCC1CCO (stereo not given) [Icaridin]	6.64 ± 2.3%	4.72 ± 0.94%	4.33 ± 2.2%	5.97 ± 4%	5.34 ± 1.5%	2.82 ± 1.4%	8.294 ± 0.063%	9.41 ± 0.56%	–	–	–	–	–	–	–	–
CC(=O)SC(C(=O)NC1Cc2ccccc2C2CCCC(C(=O)O)N2C1=O)C(C)C (stereo not given) [Ilepatril]	-3.01 ± 0.96%	-3.51 ± 0.86%	-2.73 ± 1.2%	-2.08 ± 0.5%	-2.73 ± 0.96%	-1.99 ± 0.38%	-1.05 ± 0.81%	-0.123 ± 0.4%	–	–	–	–	–	–	–	–
C=CCOC(Cn1ccnc1)c1ccc(Cl)cc1Cl (stereo not given) [Imazalil]	-1.02 ± 1.2%	-0.85 ± 0.77%	-0.00888 ± 0.2%	-0.601 ± 1.6%	-0.652 ± 0.76%	0.29 ± 0.16%	8.422 ± 0.022%	69.6 ± 12%	–	–	–	–	–	–	–	–
COCc1cnc(C2=NC(C)(C(C)C)C(=O)N2)c(C(=O)O)c1 (stereo not given) [Imazamox]	-0.37 ± 0.36%	-1.71 ± 1.1%	-1.61 ± 0.19%	-1.73 ± 0.34%	-1.43 ± 0.53%	-1.49 ± 0.15%	-2 ± 0.16%	-0.764 ± 0.39%	–	–	–	–	–	–	–	–
Cc1cnc(C2=NC(=O)C(C)(C(C)C)N2)c(C(=O)O)c1 (stereo not given) [Imazapic]	-0.83 ± 0.63%	-2.27 ± 0.52%	-1.6 ± 0.34%	-1.46 ± 0.11%	-1.69 ± 0.21%	-0.919 ± 0.055%	-0.228 ± 0.13%	0.017 ± 1.6%	–	–	–	–	–	–	–	–
CC(C)C1(C)N=C(c2ncccc2C(=O)O)NC1=O (stereo not given) [Imazapyr]	-1.83 ± 0.41%	-1.02 ± 0.061%	-1.62 ± 0.63%	-0.872 ± 0.078%	-0.897 ± 0.67%	-1.03 ± 0.39%	-0.823 ± 0.31%	0.363 ± 0.9%	–	–	–	–	–	–	–	–
